The test system of one series is GII.4 HuNoV. The series can be described thus: GII.4 HuNoV infection of HIE monolayers, viral genome equivalents by RT-qPCR. The conditions noted are these: compound 10 μM, n = 1, J2 HIE monolayers, GII.4 HuNoV, 24 hpi, normalized to DMSO control; for activity at 10 µM: Norovirus, 24 h, read-out: (%) HuNoV GEs. The series is classed as cell-based, human norovirus. In general terms: In qPCR the cycle at which signal appears reflects the starting amount.

Structures can show the parent of a compound that is named as a salt. Where two headings read alike, the source gives them in different places.

Consider `O=c1[nH]c(=O)n([C@H]2C[C@H](O)[C@@H](CO)O2)cc1I` [Dendrid], for which the “(%) Cytotoxicity” value in the series on J2 HIE monolayers (human, 24 h, 10 μM) is recorded as -0.36%. Besides, the activity at 10 µM with GII.4 HuNoV came to 67.3%.

`CN(C)CC[C@@H](c1ccc(Cl)cc1)c1ccccn1` [Dexchlorpheniramine Maleate]: the “(%) Cytotoxicity” value in the series on J2 HIE monolayers (human, 24 h, 10 μM) was -3.40%. Moreover, the activity at 10 µM with GII.4 HuNoV was determined as 63.6%.

For `CC(=O)OCC(=O)[C@@]1(O)CC[C@H]2[C@@H]3CCC4=CC(=O)C=C[C@]4(C)[C@@]3(Cl)[C@@H](Cl)C[C@@]21C` [Dichlorisone Acetate], the “(%) Cytotoxicity” value with J2 HIE monolayers (human, 24 h, 10 μM) is recorded as -1.58%. The activity at 10 µM in the series on GII.4 HuNoV was found to be 59.1%.

As to `O=c1[nH]cnc2c1ncn2[C@H]1CC[C@@H](CO)O1` [Didanosine], in the series with J2 HIE monolayers (human, 24 h, 10 μM), the “(%) Cytotoxicity” value was -0.0652%. The activity at 10 µM in the series on GII.4 HuNoV stood at 52.8%.

Consider `Clc1ccc(COC(Cn2ccnc2)c2ccc(Cl)cc2Cl)cc1` (centres unmarked) [Econazole], for which, in the series on J2 HIE monolayers (human, 24 h, 10 μM), the “(%) Cytotoxicity” value came out at 7.35%. Also, the activity at 10 µM in the series on GII.4 HuNoV came to 95.8%.

Take `O=C1Nc2ccc(Cl)cc2[C@@](C#CC2CC2)(C(F)(F)F)O1` [Efavirenz]: the “(%) Cytotoxicity” value with J2 HIE monolayers (human, 24 h, 10 μM) was 1.69%. Besides, the activity at 10 µM in the series with GII.4 HuNoV was found to be 135%.

Regarding `Nc1nc(=O)n([C@@H]2CS[C@H](CO)O2)cc1F` [Emtricitabine], the “(%) Cytotoxicity” value in the series on J2 HIE monolayers (human, 24 h, 10 μM) is 2.80%. Moreover, the activity at 10 µM with GII.4 HuNoV was 55.5%.

Take `CCn1cc(C(=O)O)c(=O)c2cc(F)c(N3CCNCC3)nc21` [Enoxacin]: the “(%) Cytotoxicity” value in the series with J2 HIE monolayers (human, 24 h, 10 μM) was 0.62%. The activity at 10 µM in the series on GII.4 HuNoV was 12.5%.

Consider `C=C1[C@H](CO)[C@@H](O)C[C@@H]1n1cnc2c(=O)[nH]c(N)nc21` [Entecavir hydrate], for which the “(%) Cytotoxicity” value with J2 HIE monolayers (human, 24 h, 10 μM) is on record as -1.04%. The activity at 10 µM with GII.4 HuNoV turned out to be 23.6%.

With `CC[C@@H](CO)NCCN[C@@H](CC)CO` [Ethambutol dihydrochloride], the “(%) Cytotoxicity” value with J2 HIE monolayers (human, 24 h, 10 μM) was 0.23%. Besides, the activity at 10 µM in the series on GII.4 HuNoV was found to be 100%.

Regarding `CC(=O)OCC(CCn1cnc2cnc(N)nc21)COC(C)=O` [Famciclovir], the “(%) Cytotoxicity” value in the series on J2 HIE monolayers (human, 24 h, 10 μM) is recorded as 0.72%. For the same molecule, the activity at 10 µM in the series on GII.4 HuNoV was 27.3%.

Consider `O=c1[nH]c(=O)n([C@H]2C[C@H](O)[C@@H](CO)O2)cc1F` [Floxuridine], for which the “(%) Cytotoxicity” value in the series with J2 HIE monolayers (human, 24 h, 10 μM) was found to be 0.65%. For the same molecule, in the series with GII.4 HuNoV, the activity at 10 µM worked out at 12.6%.

For the molecule `O=c1[nH]cc(F)c(=O)[nH]1` [Fluorouracil], the “(%) Cytotoxicity” value in the series on J2 HIE monolayers (human, 24 h, 10 μM) is recorded as -0.47%. Moreover, in the series with GII.4 HuNoV, the activity at 10 µM came out at 27.4%.

As for `O=C(O)P(=O)(O)O` [Foscarnet sodium], in the series on J2 HIE monolayers (human, 24 h, 10 μM), the “(%) Cytotoxicity” value is reported as 1.07%. For the same molecule, in the series on GII.4 HuNoV, the activity at 10 µM was found to be 88.5%.

Take `COc1cnc(-n2cnc(C)n2)c2c1c(C(=O)C(=O)N1CCN(C(=O)c3ccccc3)CC1)cn2COP(=O)(O)O` [Fostemsavir]: the “(%) Cytotoxicity” value in the series with J2 HIE monolayers (human, 24 h, 10 μM) is reported as -2.34%. In addition, the activity at 10 µM with GII.4 HuNoV is 87.3%.

Turning to `CCOC(=O)c1cccc(NC(=O)CCn2nc(C)c(S(=O)(=O)N3CCCCC3)c2C)c1` [G402-0849], the “(%) Cytotoxicity” value with J2 HIE monolayers was determined as 1.12%. Moreover, the “(%) HuNoV GEs” value with GII.4 HuNoV is given as 158.24%.

For the molecule `Nc1nc(O)c2ncn(COC(CO)CO)c2n1` [Ganciclovir], the “(%) Cytotoxicity” value in the series on J2 HIE monolayers (human, 24 h, 10 μM) was found to be 3.59%. Also, the activity at 10 µM in the series on GII.4 HuNoV is 117%.

Regarding `COC1=C2C[C@@H](C)C[C@H](OC)[C@H](O)[C@@H](C)/C=C(\C)[C@H](OC(N)=O)[C@@H](OC)/C=C\C=C(/C)C(=O)NC(=CC1=O)C2=O` [Geldanamycin], the “(%) Cytotoxicity” value in the series on J2 HIE monolayers (human, 24 h, 10 μM) was determined as 67.53%. Further, the activity at 10 µM with GII.4 HuNoV amounted to 18.6%.

Turning to `O[C@H]1[C@H](O)[C@@H](O)[C@H](O)[C@@H](O)[C@H]1O` [Inositol], the “(%) Cytotoxicity” value with J2 HIE monolayers (human, 24 h, 10 μM) was 2.88%. In addition, the activity at 10 µM with GII.4 HuNoV was 44.9%.

As for `CC(=O)N(CC(O)CO)c1c(I)c(C(=O)NCC(O)CO)c(I)c(C(=O)NCC(O)CO)c1I` (centres unmarked) [Iohexol], in the series with J2 HIE monolayers (human, 24 h, 10 μM), the “(%) Cytotoxicity” value is 1.11%. Also, in the series with GII.4 HuNoV, the activity at 10 µM turned out to be 55.3%.

On to `O=C(/C=C/c1ccc(O)cc1)c1ccc(O)cc1O` [Isoliquiritigenin], for which the “(%) Cytotoxicity” value in the series with J2 HIE monolayers (human, 24 h, 10 μM) worked out at 0.86%. In addition, in the series with GII.4 HuNoV, the activity at 10 µM is 172%.

Take `Nc1ccn([C@@H]2CS[C@H](CO)O2)c(=O)n1` [Lamivudine]: the “(%) Cytotoxicity” value with J2 HIE monolayers (human, 24 h, 10 μM) is 0.86%. In the series on GII.4 HuNoV, the activity at 10 µM turned out to be 118%.

As to `CC1(C)O[C@H]2CC(=O)OC[C@]23[C@H]2CC[C@@]4(C)[C@H](c5ccoc5)OC(=O)[C@H]5O[C@]54[C@]2(C)C(=O)C[C@@H]13` [Limonin], in the series on J2 HIE monolayers (human, 24 h, 10 μM), the “(%) Cytotoxicity” value turned out to be 0.73%. The activity at 10 µM in the series with GII.4 HuNoV worked out at 59.9%.

On to `Cc1cccc(C)c1OCC(=O)N[C@@H](Cc1ccccc1)[C@@H](O)C[C@H](Cc1ccccc1)NC(=O)[C@H](C(C)C)N1CCCNC1=O` [Lopinavir], for which the “(%) Cytotoxicity” value in the series with J2 HIE monolayers (human, 24 h, 10 μM) turned out to be 9.07%. In addition, in the series with GII.4 HuNoV, the activity at 10 µM was found to be 102%.

With `COc1cc(NC(=O)Nc2cccc(CNC(=O)O[C@H]3CCOC3)c2)ccc1-c1cnco1` [Merimepodib], in the series with J2 HIE monolayers (human, 24 h, 10 μM), the “(%) Cytotoxicity” value came to 0.74%. Also, the activity at 10 µM in the series with GII.4 HuNoV stood at 17%.

For the origin of these results see article PMC8565515, “Dasabuvir Inhibits Human Norovirus Infection in Human Intestinal Enteroids” (mSphere, 2021).
